The record followed here is publication PMC11013252, “Exploration of the Antibacterial and Anti-Inflammatory Activity of a Novel Antimicrobial Peptide Brevinin-1BW” (Molecules, 2024).

Each structure is given as a SMILES string. ≈ marks a conversion by molar mass, not a printed value. Positions of bridges follow the written chain, without caps; N, C: chain ends. Residues, ends and D or L forms follow the SMILES beside them. Bounds are passed on as bounds.

One series has as its system RAW264.7. The series is classed as cell-based, mouse. The settings on record: 24 h. On the procedure:
Medium was prepared to contain 10% FBS (TransGen Biotech, China) and 1% penicillin-streptomycin (Biosharp, Guangzhou, China). A549, U-2OS, HePG2, HaCaT, HUVEC, and 293T cells were cultured in DMEM medium (Gibco, New York, NY, USA). A375, HCT116, Hela, and RAW264.7 cells were cultured in RPMI 1640 medium (Gibco, New York, NY, USA). The cytotoxicity of Brevinin-1BW was determined using the Cell Counting Kit-8 as follows: detached the cells from cell culture flasks with 0.25% trypsin, counted with a hemocytometer plate and then prepared into a cell suspension containing 5 × 10^3 cells/mL. Then, 90 μL of the cell suspension was inoculated into a 96-well plate and incubated at 37 °C in a 5% CO2-humidified atmosphere for 24 h. A 10 μL volume of the peptide was subsequently added to each well and co-incubated with the cells for 24 h. Then, 10 μL of CCK8 (Abbkine, Wuhan, China) was added to each well and incubated for a further 2 h. The absorbance of each well at 450 nm was measured using a multifunctional enzyme marker. […] Three replicate wells were set up for each experiment, and each experiment was repeated three times. The formula for calculating the cell viability is shown below.

A further series relates to S. aureus (ATCC25923). The series can be described thus: microbe, parasite or virus in culture. The series is classed as cell-based, Staphylococcus aureus. The procedure:
(§1) The minimum inhibitory concentration (MIC) of the Brevinin-1BW was measured in 96-well microtiter plates according to the Clinical and Laboratory Standards Institute (CLSI). The activated strains were treated with Mueller Hinton Agar (MHA) solid medium. Single colonies were picked and expanded to the logarithmic growth phase, and the solution was diluted to 2 × 10^6 CFU/mL using the McFarland turbidity standard. The MIC was determined with the two-fold dilution method. Briefly, 50 μL of Mueller Hinton (MH) medium was added to a 96-well plate in advance. Then, 50 μL of AMP solution was added to the first well, and 50 μL was pipetted into the next well after mixing using a row gun, while 50 μL was discarded from the last well. Final concentrations of Brevinin-1BW were 100, 50, 25, 12.5, 6.25, and 3.125 μg/mL. A 50 μL volume of the diluted bacterial solution was added, and the final concentration of the bacterial solution was 1 × 10^6 CFU/mL. This was then placed into a 37 °C incubator for 18 h until the next day to observe the degree of turbidity of the 96-well plate and measure the absorbance of the wells at 600 nm with a multifunctional microplate reader (SpectraMax iD5, Molecular Devices, Sunnyvale, CA, USA). The absence of turbidity and the measured concentration of absorbance being less than the opposing group was taken as the MIC. The positive control used ampicillin at the same final concentration as Brevinin-1BW, the negative control used 50 μL of MH medium mixed with 50 μL of 2 × 10^6 CFU/mL bacterial solution, and the blank contained only 100 μL of MH medium. Three replicate wells were set up for each experiment, and each experiment was repeated three times. The MIC and all concentrations above the MIC of bacterial solution coated on MHA solid medium were placed into 37 °C incubator incubation for 18 h. The lowest concentration resulting in no colony growth was taken as the minimum bactericidal concentration (MBC).

Series [1] relates to S. aureus (MDR ATCC29213). The series can be described thus: microbe, parasite or virus in culture. The series is classed as cell-based, Staphylococcus aureus. The settings on record: ATCC29213, 18 h. On the procedure:
as §1

The test system of series [2] is P. aeruginosa (ATCC27853). Nature of the series: microbe, parasite or virus in culture. The series is classed as cell-based, Pseudomonas aeruginosa. The settings on record: ATCC27853, 18 h. On the procedure: as §1
For a further series, the system named is E. coli (MDR ATCC35218). The series can be described thus: microbe, parasite or virus in culture. The series is classed as cell-based, Escherichia coli. The settings on record: ATCC35218, 18 h. On the procedure:
as §1

Another series relates to TNF-α. Nature of the series: Cytokine release in LPS-treated RAW264.7 cells, ELISA. The series is classed as cell-based, mouse. On the procedure:
(§2) RAW 264.7 mouse macrophages were cultured in DMEM medium (Gibco, New York, NY, USA). containing 10% FBS (TransGen Biotech, Beijing, China) and 1% penicillin-streptomycin (Biosharp, Guangzhou, China) and were seeded into 6-well plates at a cell density of 10^5 cells/mL. After cell adhesion, 1 μg/mL LPS (Solarbio, Beijing, China) and different concentrations of Brevinin-1BW (0, 1, 2, 3, and 4 μg/mL) were incubated for 24 h. Culture supernatants were collected, and the contents of TNFα, IL-6, and IL-1β were determined with enzyme-linked immunosorbent assay (BOSTER, Wuhan, China). All cells were washed twice with precooled PBS, total cellular RNA was extracted using the RNAsimple Total RNA Extraction kit (TIANGEN, Beijing, China), and total RNA concentration and purity were determined using a Thermo Fisher NanoDropOne nucleic acid protein spectrophotometer. HiScript II 1st Strand cDNA Synthesis Kit (Vazyme, Nanjing, China) synthesized cDNA, and we performed real-time PCR using Hieff® qPCR SYBR Green Master Mix (No Rox) (YEASEN, Shanghai, China). The primer sequences for Beta-actin (β-Actin), interleukins (IL-6, IL-1β), tumor necrosis factor (TNF-α), and nitric oxide synthase (iNOS) are shown in Table 6. Cells incubated without peptide and/or LPS were used as negative control. All experiments were repeated three times.

In a further series the test system is IL-6. The series is described as above. The series is classed as cell-based, mouse. The procedure:
as §2

The subject of the next series is IL-1β. The series is described as above. The series is classed as cell-based, mouse. The settings on record: 4 μg/mL peptide, 1 μg/mL LPS, RAW264.7, 24 h, ELISA of supernatant. On the procedure: as §2
Series [3] can be described thus: LPS-binding assay, checkerboard with S. aureus. The settings on record: LPS higher than 5 μg/mL, 37 °C, 18 h, OD600. The series is classed as cell-based. The procedure: The lipopolysaccharide-binding assay was performed using the checkerboard method. Dissolve and prepare LPS (Solarbio, Beijing, China) and Brevinin-1BW with Muller Hinton (MH), add LPS with a final concentration of 0–160 μg/mL along the X-axis, and add 100–0 μg/mL Brevinin-1BW along the Y-axis. Then, an additional 10^5 CFU of S. aureus was added to bring the final volume to 200 μL. It was incubated at 37 °C for 18 h, measure the OD 600 value, and the MIC value at different LPS concentrations was recorded. The experiment was repeated three times.

In a further series the test system is E. faecalis (ATCC29212). Nature of the series: microbe, parasite or virus in culture. The series is classed as cell-based, Enterococcus faecalis. As to conditions: ATCC29212, 18 h. On the procedure: as §1

One may read the CC50 as the concentration that lowers cell viability or growth by half. The low end stands for greater toxicity to the cells, the high end for lower toxicity to the cells. As for `CC[C@H](C)[C@@H]1NC(=O)[C@H](CCCCN)NC(=O)[C@@H](NC(=O)[C@H](Cc2ccccc2)NC(=O)[C@@H](NC(=O)[C@@H](NC(=O)[C@@H]2CCCN2C(=O)[C@H](CC(C)C)NC(=O)[C@H](Cc2ccccc2)NC(=O)[C@H](CO)NC(=O)[C@H](C)NC(=O)[C@H](C)NC(=O)[C@H](CC(C)C)NC(=O)CNC(=O)[C@H](C)NC(=O)[C@H](CC(C)C)NC(=O)[C@H](CC(C)C)NC(=O)[C@@H]2CCCN2C(=O)[C@H](CC(C)C)NC(=O)[C@@H](N)Cc2ccccc2)[C@@H](C)O)[C@@H](C)CC)CSSC[C@@H](C(=O)O)NC(=O)[C@H](CCCCN)NC(=O)[C@H](CCCNC(=N)N)NC(=O)[C@H](CO)NC1=O` [Brevinin-1BW] (H-FLPLLAGLAASFLPTIFCKISRKC-OH; disulfide 18-24), in the series on RAW264.7, the CC50 is on record as 32.33 ± 0.47 µg/mL (≈ 12.4 µM). Further, the MBC in the series with S. aureus (ATCC25923) (ATCC25923, 18 h) is 6.25 µg/mL (≈ 2.4 µM); in series [1], 25 µg/mL (≈ 9.58 µM); in series [2] it was greater than 100 µg/mL; with E. coli (MDR ATCC35218) it was greater than 100 µg/mL; in the series on E. faecalis (ATCC29212), 12.5 µg/mL (≈ 4.79 µM). Further, the MIC was 6.25 µg/mL (≈ 2.4 µM) with S. aureus (ATCC25923) (ATCC25923, 18 h); 6.25 µg/mL (≈ 2.4 µM) in series [1]; 100 µg/mL (≈ 38.3 µM) in series [2]; greater than 100 µg/mL against E. coli (MDR ATCC35218); 3.125 µg/mL (≈ 1.2 µM) in the series on E. faecalis (ATCC29212). Also, the reduction of viability with S. aureus (ATCC25923) (S. aureus, at 6.25 μg/mL) is given as 99.9%. Further, in the series with TNF-α, the “decrease of TNF-α release” value was 87.31%. Besides, in the series on IL-6, the “decrease of IL-6 release” value is 77.82%. The “decrease of IL-1β release” value in the series with IL-1β was 91.46%. In series [3], the “antibacterial activity against S. aureus in the presence of LPS” value is listed as “gradually decreased”.
